Results on one substance are retold here after patent publication US7361643B2, “Methods for inhibiting angiogenesis” (University of Puerto Rico, priority 2000, dated 2008).

In the test the test system is Factor VIII:C. The experiment in a line: Factor VIII:C level by enzyme-linked immunoassay (ELISA). The test is classed as cell-based, bovine. Particulars: 1 μg/ml tunicamycin. Here is the method:
In conducting ELISA, 96-well microtiter EIA plates, available from Corning Inc., Corning, N.Y., were coated overnight at 4° C. with 50 μl mouse monoclonal anti-Factor VIII:C antibody (i.e., IgG1k which is commercially available from Molecular Biochemicals (previously known as “Boehringer-Mannheim”), Indianapolis, Ind. (diluted 1:500) in 100 mM sodium carbonate buffer, pH 9.2. Blank wells were coated similarly with 0.25 μg of bovine serum albumin (BSA). The plates were washed three times 50 μl each wash with 50 mM Tris-HCl, pH 7.5 containing 150 mM NaCl and 0.5% (v/v) Tween-20 (TBST), available from Bio-Rad Laboratories, Richmond, Calif. and incubated at 37° C. for one hour with 50 μl conditioned media or cell lysates. The cell lysates were obtained by incubating for 20 minutes with 1 ml of ice-cold 20 mM TRIS-HCL, pH 8.0 buffer containing 150 mM NaCl, 1% (v/v) NP-40 and 1 μg/ml aprotinin. At the end of the incubation, the plates were washed three times with TBST, as above, and incubated at 37° C. for another hour with 50 μl of 1:500 diluted monoclonal anti-Factor VIII:C antibody. […] The absorbance was read at approximately 405 nm after 30 minutes by using an EIA microplate reader, Model 2550 with a 405 nm filter, both available from Bio-Rad Laboratories, Richmond, Calif. […]

For the substance tunicamycin, the “time from which Factor VIII:C level started increasing” value is ≥ 32 h. Besides, where the note is “conditioned media and cell lysates”, the “level of immunopositive Factor VIII:C versus controls” value was “high level”.
